From US20090196950A1, “METHODS OF FEEDING PIGS AND PRODUCTS COMPRISING BENEFICIAL FATTY ACIDS” (Monsanto Company, priority 2008, published 2009) come the findings set out here.

A short description of the assay: 35 day feeding study in pigs: fatty acid composition of pork tissues (belly, loin, ham, skin) by GC-FID of FAMEs. The class given is in vivo. The procedure: A 35 day study was conducted to determine whether pigs fed a diet containing SDA could produce meat with improved fatty acid profiles including increased levels of SDA, EPA, and DHA.
A control diet (Treatment 1) formulated to meet or exceed NRC (1998) nutrient requirements for pigs in the late finishing phase (approximately 80-120 kg BW containing 1.14% corn oil and no added SDA ethyl ester (70% w/w SDA) were fed ad libitum during an acclimation period of at least 1 week duration. Ethoxyquin was included in all diets as an antioxidant at a concentration of 150 parts per million (0.015%, as-fed basis), the maximum level allowed by FDA regulation in animal feeds. The same control diet was fed ad libitum to the control pigs (pen receiving Treatment 1) throughout a 35-day test period. Four test diets (Treatment 2, 3, 4, and 5) with SDA ethyl ester substituted for corn oil to provide 0.2, 0.4, 0.6 and 0.8% (w/w SDA active ingredient, as-is basis) were fed ad libitum to one pen of four pigs throughout the 35-day test period Table 4). All diets were fed in meal form.
All pigs were individually weighed at initiation of the acclimation and test period, and immediately prior to slaughter. Feed consumption per pen was recorded. […] Live weights prior to slaughter and hot carcass weights were recorded. […] Prior to removing the sample for sensory and fatty and proximate analysis from the belly the firmness of the belly was evaluated using a flop test. At 24 hr postmortem fat thickness (10th rib), loin eye area (10th rib), visual color, firmness and marbling, Minolta color (L*a*b*), pH, and drip loss were measured. […]
In order to evaluate the fatty acid composition of pig tissues (loin, ham, skin, and belly), samples were stored at −80° C. until evaluation. […] Resultant fatty acid methyl esters (FAME's) were separated by capillary gas chromatography (GC) and detected by flame ionization detector (FID). […] Quantification was achieved by using an internal standard (c15:0 triacylglyceride (TAG) for pig tissue samples and c17:0 TAG for diet samples). […]

In the case of `CC/C=C\C/C=C\C/C=C\C/C=C\CCCCC(=O)O` [SDA, stearidonic acid], the “enrichment of SDA, ETA, and EPA in belly, loin, ham, and skin tissues” value (0.2-0.8% SDA in feed, 35 days) is “enriched in belly, loin, ham, and skin tissues in a dose dependent manner”. The “levels of SDA, ETA, EPA, DPA in belly, loin, ham and skin tissues and DHA in ham tissue as compared to the control” value (SDA supplementation, 35 days) is recorded as “higher levels”. Besides, the “omega 3 fatty acid enrichment in belly, loin, ham and skin tissues as compared to the control” value (pigs fed SDA for the last 35 days prior to slaughter) is recorded as “significant increase”.
